Common to all, as to test: relative viability (nuclei count vs DMSO), 5 days (fraction); higher = more cells survive
Compound in the test “Kobe2602 + Luminespib”: C1=CC(=CC=C1NC(=S)NNC2=C(C=C(C=C2[N+](=O)[O-])C(F)(F)F)[N+](=O)[O-])F [Kobe2602] + CCNC(=O)c1noc(-c2cc(C(C)C)c(O)cc2O)c1-c1ccc(CN2CCOCC2)cc1 [Luminespib] (partner 0.01 µM)
Summed up: (§1)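 One day after seeding in 1536-well plates, lung cancer cell lines were dosed by pin tool. Dosing was either single-drug or a fixed anchor-drug dose plus five library-drug doses (not always all listed) in √10 steps. After 5 days, nuclei were stained in one fix-and-stain step and counted on 4× images, and relative viability is the nuclei count of treated wells over that of vehicle wells, given as the median of duplicate plates.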

Compound in the test “Zosuquidar + Linsitinib”: O[C@@H](COc1cccc2ncccc12)CN1CCN([C@@H]2c3ccccc3[C@@H]3[C@H](c4ccccc42)C3(F)F)CC1 [Zosuquidar] + C[C@]1(O)C[C@@H](c2nc(-c3ccc4ccc(-c5ccccc5)nc4c3)c3c(N)nccn32)C1 [Linsitinib] (partner 1 µM)
Summed up: as §1

Compound in the test “Kobe2602 + Bortezomib”: C1=CC(=CC=C1NC(=S)NNC2=C(C=C(C=C2[N+](=O)[O-])C(F)(F)F)[N+](=O)[O-])F [Kobe2602] + CC(C)C[C@H](NC(=O)[C@H](Cc1ccccc1)NC(=O)c1cnccn1)B(O)O [Bortezomib] (partner 0.002 µM)
A digest of the protocol:
as §1

Compound in the test “Zosuquidar + Dasatinib”: O[C@@H](COc1cccc2ncccc12)CN1CCN([C@@H]2c3ccccc3[C@@H]3[C@H](c4ccccc42)C3(F)F)CC1 [Zosuquidar] + Cc1nc(Nc2ncc(C(=O)Nc3c(C)cccc3Cl)s2)cc(N2CCN(CCO)CC2)n1 [Dasatinib] (partner 0.075 µM)
Summed up: as §1

As for UMC-11, the relative viability came out at 1.04 with Kobe2602 + Luminespib (first compound 0.2 µM); 1.12 with Kobe2602 + Luminespib (first compound 0.6325 µM); 0.959 with Kobe2602 + Luminespib (first compound 2 µM); 1.04 with Kobe2602 + Luminespib (first compound 6.325 µM); 1.05 in the test with Kobe2602 + Luminespib (first compound 20 µM); 0.976 in the test with Zosuquidar + Linsitinib (first compound 0.01 µM). In addition, the relative viability in the test with Zosuquidar + Linsitinib (first compound 0.03162 µM) came out at 0.98; with Zosuquidar + Linsitinib (first compound 0.1 µM) it was 1.05; in the test with Zosuquidar + Linsitinib (first compound 0.3162 µM), 1.07; with Zosuquidar + Linsitinib (first compound 1 µM) it was 1.07; in the test with Kobe2602 + Bortezomib (first compound 0.2 µM), 0.779; in the test with Kobe2602 + Bortezomib (first compound 0.6325 µM), 0.819. Moreover, the relative viability in the test with Kobe2602 + Bortezomib (first compound 2 µM) was found to be 0.795; with Kobe2602 + Bortezomib (first compound 6.325 µM), 0.628; in the test with Kobe2602 + Bortezomib (first compound 20 µM), 0.645; with Zosuquidar + Dasatinib (first compound 0.01 µM), 0.428; with Zosuquidar + Dasatinib (first compound 0.03162 µM), 0.535; with Zosuquidar + Dasatinib (first compound 0.1 µM) it was 0.455. In addition, the relative viability with Zosuquidar + Dasatinib (first compound 0.3162 µM) came to 0.486; in the test with Zosuquidar + Dasatinib (first compound 1 µM) it was 0.518.

Source of the values: the supplement of paper PMC10307832.
